pKi: −log10 of the molar value. Where “and” joins values, the source holds several entries; their conditions need not be identical. Equal entries are not always repeated. Where two headings read alike, the source gives them in different places.
Experiments:
[1] = biological target: T1, human recombinant αSYN fibrils (Homo sapiens, UniProt P37840); test: [3H]PiB competition binding assay on αSYN fibrils; details: for pKi: competition against 6 nM [3H]PiB, read-out: Ki (mean ± SEM)
Method: (§1) Concentrations of αSYN and Aβ1-42 fibrils were as described above.
Plates were incubated on a shaker (MaxQ 6000, Thermo Fisher Scientific Inc., Marietta, OH, USA) at 50 rpm for 2 hours at 37° C., covered by removable sealing tapes (PerkinElmer, Waltham, MA, USA). […] Data points were fitted using non-linear regression analysis in GraphPad Prism (GraphPad Software, Inc., Version 8.4.0, La Jolla, USA).

[2] = biological target: T2, synthetic human Aβ1-42 fibrils (Homo sapiens, UniProt P05067); test: [3H]PiB competition binding assay on Aβ fibrils; details: result in words; FIG. 4b, 6b
T2 construct: chain cut from APP
Description: The method for Aβ1-42 fibrils generation was adapted from Bagchi, D. P. et al., Binding of the radioligand SIL23 to alpha-synuclein fibrils in Parkinson disease brain tissue establishes feasibility and screening approaches for developing a Parkinson disease imaging agent; PLoS One 2013, 8 (2), e55031, and described in Kuebler, L. et al., [^11C]MODAG-001-towards a PET tracer targeting α-synuclein aggregates; European Journal of Nuclear Medicine and Molecular Imaging 2020, 48, 1759-1772. Synthetic lyophilized human Aβ1-42 peptide (5 mg) with >90% purity (EMC Microcollections, Tuebingen, Germany) was dissolved in DMSO (221.5 μL), followed by the addition of deionized water (4.1 mL) and 1 M Tris-HCl (111 μL, pH 7.6) to reach a final monomeric concentration of 250 μM. Aggregation was induced by incubation in Eppendorf Thermomixer at 37° C. with shaking at 800 rpm for 72 hours. […]
Plates were incubated on a shaker (MaxQ 6000, Thermo Fisher Scientific Inc., Marietta, OH, USA) at 50 rpm for 2 hours at 37° C., covered by removable sealing tapes (PerkinElmer, Waltham, MA, USA). Vacuum filtration and read-out were performed as disclosed in Kuebler, L. et al., [^11C]MODAG-001-towards a PET tracer targeting α-synuclein aggregates; European Journal of Nuclear Medicine and Molecular Imaging 2020, 48, 1759-1772. […]

[3] = biological target: T3, Aβ plaques in AD human brain slices (Homo sapiens, UniProt P05067); test: In vitro autoradiography on AD human brain slices (frontal cortex); format: binding
T3 construct: mainly Abeta40/42 cut from APP) in post-mortem AD frontal cortex slices
Method: (§2) Post-mortem human brain slices (10 μm thickness) were obtained from and the subject cases were analyzed by the Neurobiobank München (NBM, Munich, Germany), where tissues were collected on the basis of written informed consent according to the guidelines of the ethics committee of the Ludwig-Maximilians-University Munich, Germany (#345-13). The use of brain tissue samples in this study was approved by the ethics committee of the Faculty of Medicine at the University of Tuebingen (Ethics approval number: 813/2018BO2). Table 1 summarizes the information of the subjects from which samples were obtained and used in the experiment.
(§3) For autoradiography, brain slices were thawed for one hour before pre-incubation in BSA buffer for 25 minutes at room temperature. To determine total binding (TB), brain slices were incubated with the tracer (10 nM [^18F]PFSB, 10 nM [^18F]MFSB). Incubation of consecutive slices with the correspondent non-radioactive compounds (10 μM PFSB, […]) was performed to determine non-specific binding (NSB). The non-radioactive compounds were prepared by dissolving in DMSO to 10 mM, which yielded DMSO concentration of ≤0.1% in the final solution. Incubation was carried out for one hour at room temperature with subsequent washing in cold BSA buffer (three times for ten minutes) followed by three dipping in cold deionized water. After drying under UV lamps, brain slices were exposed to a storage phosphor screen (Molecular Dynamics, Caesarea, Israel) for 18 hours, which was then scanned in a phosphor imager (STORM 840, Molecular dynamics, Sunnyvale, CA, USA).
(§4) Quantitative data analysis was performed by drawing four regions of interest (ROIs) in relevant areas of the slice and one ROI next to it for background subtraction (ImageJ 1.8.0_172, National Institute of Health, Bethesda, Maryland, USA) (Schneider, C. A. et al., NIH Image to ImageJ: 25 years of image analysis; Nat Methods 2012, 9 (7), 671-5). Specific binding (SB) is obtained by subtracting NSB from TB. The SB disease/SB control ratio was calculated by dividing by the SB in diseased tissues with the respective SB in control tissues.

[4] = biological target: αSYN pathology in MSA human brain slices (Homo sapiens, UniProt P37840); test: In vitro autoradiography on MSA human brain slices (cerebellum); format: binding
Method: as §2, §3, §4

[5] = biological target: αSYN pathology in PD human brain slices (Homo sapiens, UniProt P37840); test: In vitro autoradiography on PD human brain slices (frontal cortex); format: binding; details: 10 nM tracer; NSB with 10 μM non-radioactive compound
Method: as §2
For autoradiography, brain slices were thawed for one hour before pre-incubation in BSA buffer for 25 minutes at room temperature. To determine total binding (TB), brain slices were incubated with the tracer (10 nM [^18F]PFSB, 10 nM [^18F]MFSB). […]
as §4, with “Specific binding (SB) is obtained by subtracting NSB from TB.” left out

[6] = biological target: T1, human recombinant αSYN fibrils; test: [3H]MODAG-001 competition binding assay on αSYN fibrils; details: for competition with [3H]MODAG-001: result in words
Method: as §1
Plates were incubated on a shaker (MaxQ 6000, Thermo Fisher Scientific Inc., Marietta, OH, USA) at 50 rpm for 2 hours at 37° C., covered by removable sealing tapes (PerkinElmer, Waltham, MA, USA). Vacuum filtration and read-out were performed as disclosed in Kuebler, L. et al., [^11C]MODAG-001-towards a PET tracer targeting α-synuclein aggregates; European Journal of Nuclear Medicine and Molecular Imaging 2020, 48, 1759-1772. […] Data points were fitted using non-linear regression analysis in GraphPad Prism (GraphPad Software, Inc., Version 8.4.0, La Jolla, USA).

[7] = methylated compounds, two data points
[8] = non-methylated compounds, two data points (three for 9a, 14a, 15a, 17a, 18a; single for 12a)
[9] = 10 nM tracer, NSB with 10 μM non-radioactive compound

T3 sequence (P05067 672-713 limits assumed): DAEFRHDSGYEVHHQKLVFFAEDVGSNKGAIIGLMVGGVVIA
T2 sequence (P05067 672-713): as the sequence (P05067 672-713 limits assumed) above

Structure (SMILES): C[n+]1c(C=Cc2ccc(N3CCCCC3)cc2)sc2cccc(F)c21 [Compound 3b, 4-fluoro-3-methyl-2-(4-(piperidin-1-yl)styryl)benzo[d]thiazol-3-ium 4-nitrobenzenesulfonate]
- pKi [1, 7]: < 6.40

Structure (SMILES): COc1cccc2nc(C=Cc3ccc(N4CCCCC4)cc3)sc12 [Compound 11a, 7-methoxy-2-(4-(piperidin-1-yl)styryl)benzo[d]thiazole]
- pKi [1, 8]: < 6.40

Structure (SMILES): CN(C)c1ccc(C=Cc2nc3ccccc3s2)cc1 [Compound 19a, 4-(2-(benzo[d]thiazol-2-yl)vinyl)-N,N-dimethylaniline]
- pKi [1, 8]: < 6.40

Structure (SMILES): C[n+]1c(C=Cc2ccc(N3CCC(F)CC3)cc2)sc2ccccc21 [Compound 18b, 2-(4-(4-fluoropiperidin-1-yl)styryl)-3-methylbenzo[d]thiazol-3-ium Iodide]
- pKi [1, 7]: < 6.40

Structure (SMILES): Cc1cccc2nc(C=Cc3ccc(N4CCCCC4)cc3)sc12 [Compound 10a, 7-methyl-2-(4-(piperidin-1-yl)styryl)benzo[d]thiazole]
- pKi [1, 8]: < 6.40

Structure (SMILES): Fc1ccc2nc(C=CC=Cc3ccc(N4CCCCC4)cc3)sc2c1 [Compound 43, 6-fluoro-2-(4-(4-(piperidin-1-yl)phenyl)buta-1,3-dien-1-yl)benzo[d]thiazole]
- competition with [3H]PiB / binding to Aβ fibrils [2]: the binding to Aβ remained low

Structure (SMILES): C(=Cc1nc2ccccc2s1)c1ccc(N2CCOCC2)cc1 [Compound 15a, 4-(4-(2-(benzo[d]thiazol-2-yl)vinyl)phenyl)morpholine]
- affinity relative to N-piperidine analog 20 ([1]; result in words): comparable affinity

Structure (SMILES): [18F]c1ccc2nc(/C=C/c3ccc(N4CCCCC4)cc3)sc2c1 [[^18F]PFSB]
- SB disease/SB control, AD/frontal cortex ctrl [3, 9]: 1.06 and 1.03
- binding in AD brain regions with Aβ plaques / AD/frontal cortex SB ratio in words ([3]; result in words, FIG. 12): no increased binding
- SB disease/SB control, MSA1/cerebellum ctrl [4, 9]: 3.73
- SB disease/SB control, MSA2/cerebellum ctrl [4, 9]: 4.15
- specific binding ratio of MSA brain slices compared to the control ([4]; MSA patients, same brain area, 10 nM tracer): 3.94±0.30
- selectivity towards αSYN over Aβ ([4]; autoradiography, result in words, FIG. 12): selectivity towards αSYN over Aβ
- affinity to αSYN pathology ([4]; result in words, FIG. 12): displayed affinity to αSYN pathology
- SB disease/SB control, PD/frontal cortex ctrl [5]: 1.51

Structure (SMILES): Fc1ccc2nc(C=Cc3ccc(N4CCCCC4)cc3)sc2c1 (mixture of isomers) [Compound 9a, 6-fluoro-2-(4-(piperidin-1-yl)styryl)benzo[d]thiazole]
- competition with [3H]MODAG-001 [6]: moderate to good competition

Structure (SMILES): C[n+]1c(C=Cc2ccc(N3CCSCC3)cc2)sc2ccccc21 [Compound 16b, 3-methyl-2-(4-thiomorpholinostyryl)benzo[d]thiazol-3-ium Iodide]
- pKi [1, 7]: < 6.40

Structure (SMILES): C[n+]1c(C=Cc2ccc(N3CCCCC3)cc2)sc2c(F)cccc21 [Compound 12b, 7-fluoro-3-methyl-2-(4-(piperidin-1-yl)styryl)benzo[d]thiazol-3-ium Iodide]
- pKi [1, 7]: < 6.40

Structure (SMILES): CN1CCN(c2ccc(C=Cc3sc4ccccc4[n+]3C)cc2)CC1 [RB2, 3-methyl-2-(4-(4-methylpiperazin-1-yl)styryl)benzo[d]thiazol-3-ium Iodide, reference compound]
- pKi [1, 7]: < 6.40

Structure (SMILES): C[n+]1c(-c2ccc(N3CCCCC3)cc2)sc2ccccc21 [Compound 13b, 3-methyl-2-(4-(piperidin-1-yl)phenyl)benzo[d]thiazol-3-ium]
- pKi [1, 7]: < 6.40

Structure (SMILES): Fc1ccc2nc(C=CC=Cc3ccc(N4CCCC4)cc3)sc2c1 [Compound 44, 6-fluoro-2-(4-(4-(pyrrolidin-1-yl)phenyl)buta-1,3-dien-1-yl)benzo[d]thiazole]
- competition with [3H]PiB / binding to Aβ fibrils [2]: the binding to Aβ remained low

Structure (SMILES): Fc1ccc2nc(C=Cc3ccc(N4CCOCC4)cc3)sc2c1 [Compound 45, 4-(4-(2-(6-fluorobenzo[d]thiazol-2-yl)vinyl)phenyl)morpholine]
- improvement of affinity (Ki) of MFSB compared to PFSB ([1]; [3H]PiB competition, versus PFSB): 2.5 factor
- fold lower Ki of MFSB than PFSB ([6]; [3H]MODAG-001 competition, versus PFSB): 4.6 fold
- competition with [3H]MODAG-001 [6]: moderate to good competition

Structure (SMILES): CN(C)c1ccc(C=Cc2sc3ccccc3[n+]2C)cc1 [Compound 19b, 2-(4-(dimethylamino)styryl)-3-methylbenzo[d]thiazol-3-ium Iodide]
- pKi [1, 7]: < 6.40

Structure (SMILES): C[n+]1c(C=Cc2ccc(N3CCOCC3)cc2)sc2ccccc21 [Compound 15b, 3-methyl-2-(4-morpholinostyryl)benzo[d]thiazol-3-ium Iodide]
- pKi [1, 7]: < 6.40

Structure (SMILES): COc1cccc2sc(C=Cc3ccc(N4CCCCC4)cc3)nc12 [Compound 2a, 4-methoxy-2-(4-(piperidin-1-yl)styryl)benzo[d]thiazole]
- pKi [1, 8]: < 6.40

Reference: patent publication US20260327195A1, “2-STYRYLBENZOTHIAZOLE DERIVATIVES AS ALPHA-SYNUCLEIN BINDING COMPOUNDS” (Eberhard Karls Universität Tübingen Medizinische Fakultät, priority 2023, published 2026)
